Measurements from PMC6112376, “Comprehensive Analyses and Prioritization of Tox21 10K Chemicals Affecting Mitochondrial Function by in-Depth Mechanistic Studies” (Environmental Health Perspectives, 2018).
Read-outs that look alike come from different tables or passages of the source.

Tests used:
HepG2 cells [1] = experiment: cells; details: Homo sapiens
HepG2 cells [2] = experiment: Intracellular ATP content (cell viability) assay; assay type: cell-based, human; details: Homo sapiens, HepG2, 40 h
HepG2 cells [3] = details: cited from earlier work
hNSC = experiment: MMP assay in human neural stem cells (hNSC); assay type: cell-based; details: Homo sapiens, Neural stem cell, 1 h, read-out: hNSC IC50 (MMP)
[4] = tested on: Caenorhabditis elegans (Bristol N2); experiment: C. elegans larval development and growth assay
HepG2 cells [5] = experiment: ROS-Glo hydrogen peroxide (ROS) assay; assay type: cell-based, human
[6] = tested on: p53 (p53-bla HCT-116 cells); experiment: p53 β-lactamase reporter gene assay; assay type: cell-based, human; details: 16 h incubation, mean±SD of three experiments
[7] = tested on: Nrf2/ARE (ARE-bla HepG2 cells); experiment: ARE β-lactamase reporter gene assay; assay type: cell-based, human; details: Homo sapiens, HepG2; 16 h incubation; mean±SD of three experiments; read-out: ARE (HepG2) EC50
[8] = tested on: Caenorhabditis elegans strain PE255; experiment: In vivo C. elegans ATP status assay; details: for minimal effective concentration: Caenorhabditis elegans, read-out: LEC LUM: lowest effect concentration for luminescence, a measure of nematode ATP content
rat primary hepatocytes [9] = tested on: rat primary hepatocytes
[10] = tested on: isolated rat liver mitochondria; experiment: Oxygen consumption, Clark-type oxygen electrode; assay type: biochemical
[11] = tested on: HeLa cells expressing YFP-Parkin; experiment: Parkin translocation assay; assay type: cell-based, human
rat primary hepatocytes [12] = experiment: MMP assay in rat primary hepatocytes; details: Rattus norvegicus, Hepatocyte
[13] = HepG2, 1 h, read-out: HepG2 IC50 Galactose (MMP)
[14] = HepG2, 1 h, read-out: HepG2 IC50 Glucose (MMP)
[15] = read-out: ATP (HepG2, galactose) IC50
[16] = read-out: ATP (HepG2, glucose) IC50
[17] = 1 h, read-out: Rat hepatocytes IC50 (MMP)

CO[C@H]1/C=C/O[C@@]2(C)Oc3c(C)c(O)c4c(O)c(c(/C=N/N5CCN(C6CCCC6)CC5)c(O)c4c3C2=O)NC(=O)/C(C)=C\C=C\[C@H](C)[C@H](O)[C@@H](C)[C@@H](O)[C@@H](C)[C@H](OC(C)=O)[C@@H]1C [Rifapentine, reference compound]
IC50 (HepG2 cells [1]; [13]): 17.7 µM | IC50 (HepG2 cells [1]; [14]): 13.9 µM | IC50 (HepG2 cells [1]; HepG2, read-out: MMP assays IC50 (µM) HepG2): 3.88 µM | Emax (HepG2 cells [1]; HepG2, read-out: MMP assays efficacy (%) HepG2): 101% | IC50 (HepG2 cells [2]; [15]): 36 µM | IC50 (HepG2 cells [2]; [16]): 43.4 µM | MMP assays efficacy (%) qHTS-HepG2 (HepG2 cells [3]): -104±16% | IC50 (HepG2 cells [3]; read-out: MMP assays IC50 (µM), qHTS-HepG2): 1.46 ± 0.26 µM | IC50 (hNSC): 8.07 µM | effect on larval growth (in words) ([4]; 0.5–100μM): did not affect growth | ROS (HepG2) EC50 (HepG2 cells [5]): Inactive | p53 (HCT-116) EC50 [6]: Inactive | EC50 [7]: 29.3 ± 7.09 µM | effect on ATP content (in words) ([8]; 0.5–100μM): statistically significant decreases in ATP content | minimal effective concentration [8]: 100 µM | Rat hepatocytes (efficacy) (MMP) (rat primary hepatocytes [9]): 5.94±1.48 ( −73.4±10.2 ) % | Potential Mechanism [10]: Inactive | I-ADP, % of control (O2 consumption rate) ([10]; 4 µM): 88 (48.1) % of control | I-sub, % of control (O2 consumption rate) ([10]; 4 µM): 98 (12.8) % of control | II-ADP, % of control (O2 consumption rate) ([10]; 4 µM): 94 (82.6) % of control | II-sub, % of control (O2 consumption rate) ([10]; 4 µM): 92 (22.7) % of control | I-ADP, % of control (O2 consumption rate) ([10]; 20 µM): 86 (47.1) % of control | I-sub, % of control (O2 consumption rate) ([10]; 20 µM): 127 (16.7) % of control | II-ADP, % of control (O2 consumption rate) ([10]; 20 µM): 85 (75.2) % of control | II-sub, % of control (O2 consumption rate) ([10]; 20 µM): 101 (24.8) % of control | Parkin recruitment [11]: Inactive | IC50 (rat primary hepatocytes [12]; [17]): 5.94 µM | IC50 (rat primary hepatocytes [12]; read-out: MMP assays IC50 (µM) Rat Hepatocytes): 0.62 ± 0.55 µM

CCC(C)c1cc([N+](=O)[O-])cc([N+](=O)[O-])c1O (centres unmarked) [Dinoseb]
IC50 (HepG2 cells [1]; [13]): 16.5 µM | IC50 (HepG2 cells [1]; [14]): 12.4 µM | IC50 (HepG2 cells [2]; [15]): 32.6 µM | IC50 (HepG2 cells [2]; [16]): 36.8 µM | IC50 (hNSC): 22.3 µM | EXT: mean difference in nematode size relative to plate controls ([4]; 0.5 µM): -0.01247 | EXT: mean difference in nematode size relative to plate controls ([4]; 1 µM): -0.02122 | EXT: mean difference in nematode size relative to plate controls ([4]; 5 µM): -0.00308 | EXT: mean difference in nematode size relative to plate controls ([4]; 10 µM): 0.1196 | EXT: mean difference in nematode size relative to plate controls ([4]; 25 µM): 0.1256 | EXT: mean difference in nematode size relative to plate controls ([4]; 50 µM): 0.4169 | EXT: mean difference in nematode size relative to plate controls ([4]; 75 µM): 0.7162 | EXT: mean difference in nematode size relative to plate controls ([4]; 100 µM): 0.9301 | minimal effective concentration ([4]; Caenorhabditis elegans, read-out: LEC EXT: lowest effect concentration for extinction, a measure of nematode size): 50 µM | EC50 (HepG2 cells [5]; Homo sapiens, HepG2, 2 h, read-out: ROS (HepG2) EC50): 27.6 µM | EC50 ([6]; Homo sapiens): 2.63 ± 1.78 µM | EC50 [7]: 0.76 ± 0.13 µM | LUM: mean difference in luminescence (ATP content) relative to plate controls ([8]; 0.5 µM): 0.1603 | LUM: mean difference in luminescence (ATP content) relative to plate controls ([8]; 1 µM): 0.2694 | LUM: mean difference in luminescence (ATP content) relative to plate controls ([8]; 5 µM): 0.2298 | LUM: mean difference in luminescence (ATP content) relative to plate controls ([8]; 10 µM): 0.4579 | LUM: mean difference in luminescence (ATP content) relative to plate controls ([8]; 25 µM): 0.5745 | LUM: mean difference in luminescence (ATP content) relative to plate controls ([8]; 50 µM): 0.9424 | LUM: mean difference in luminescence (ATP content) relative to plate controls ([8]; 75 µM): 1.122 | LUM: mean difference in luminescence (ATP content) relative to plate controls ([8]; 100 µM): 1.3353 | minimal effective concentration [8]: 50 µM | Rat hepatocytes (efficacy) (MMP) (rat primary hepatocytes [9]): 4.50±0.81 ( −130±39.0 ) % | Potential Mechanism [10]: Uncoupler at low concentrations (0.032-0.16 µM), and Uncoupler + inhibitor at high concentrations (0.8-100 µM) | I-ADP, % of control (O2 consumption rate) ([10]; 0.0064 µM): 89 (38.7) % of control | I-sub, % of control (O2 consumption rate) ([10]; 0.0064 µM): 118 (15.5) % of control | II-ADP, % of control (O2 consumption rate) ([10]; 0.0064 µM): 98 (66.3) % of control | II-sub, % of control (O2 consumption rate) ([10]; 0.0064 µM): 122 (25.5) % of control | I-ADP, % of control (O2 consumption rate) ([10]; 0.032 µM): 97 (42.2) % of control | I-sub, % of control (O2 consumption rate) ([10]; 0.032 µM): 131 (17.2) % of control | II-ADP, % of control (O2 consumption rate) ([10]; 0.032 µM): 92 (62.6) % of control | II-sub, % of control (O2 consumption rate) ([10]; 0.032 µM): 137 (28.6) % of control | I-ADP, % of control (O2 consumption rate) ([10]; 0.16 µM): 106 (46.2) % of control | I-sub, % of control (O2 consumption rate) ([10]; 0.16 µM): 181 (23.7) % of control | II-ADP, % of control (O2 consumption rate) ([10]; 0.16 µM): 98 (66.1) % of control | II-sub, % of control (O2 consumption rate) ([10]; 0.16 µM): 199 (41.5) % of control | I-ADP, % of control (O2 consumption rate) ([10]; 0.8 µM): 138 (59.9) % of control | I-sub, % of control (O2 consumption rate) ([10]; 0.8 µM): 423 (55.4) % of control | II-ADP, % of control (O2 consumption rate) ([10]; 0.8 µM): 59 (40.0) % of control | II-sub, % of control (O2 consumption rate) ([10]; 0.8 µM): 193 (40.3) % of control | I-ADP, % of control (O2 consumption rate) ([10]; 4 µM): 111 (48.1) % of control | I-sub, % of control (O2 consumption rate) ([10]; 4 µM): 347 (45.5) % of control | II-ADP, % of control (O2 consumption rate) ([10]; 4 µM): 28 (19.1) % of control | II-sub, % of control (O2 consumption rate) ([10]; 4 µM): 96 (20.0) % of control | I-ADP, % of control (O2 consumption rate) ([10]; 20 µM): 70 (30.6) % of control | I-sub, % of control (O2 consumption rate) ([10]; 20 µM): 242 (31.7) % of control | II-ADP, % of control (O2 consumption rate) ([10]; 20 µM): 18 (12.1) % of control | II-sub, % of control (O2 consumption rate) ([10]; 20 µM): 64 (13.3) % of control | I-ADP, % of control (O2 consumption rate) ([10]; 100 µM): 13 (6.5) % of control | I-sub, % of control (O2 consumption rate) ([10]; 100 µM): 33 (7.1) % of control | II-ADP, % of control (O2 consumption rate) ([10]; 100 µM): 12 (6.9) % of control | II-sub, % of control (O2 consumption rate) ([10]; 100 µM): 22 (7.8) % of control | Parkin recruitment [11]: Active | IC50 (rat primary hepatocytes [12]; [17]): 4.5 µM
